Measured values taken from publication PMC9200067 (Clinical and Translational Science, 2022).
pKi: −log10 of the molar value.

Tests used:
Test in all cases: competitive radioligand binding, recombinant cells
Assay type in all cases: cell-based
α1B = target: T1, α1B (Homo sapiens, UniProt P35368)
T1 sequence (P35368 1-520): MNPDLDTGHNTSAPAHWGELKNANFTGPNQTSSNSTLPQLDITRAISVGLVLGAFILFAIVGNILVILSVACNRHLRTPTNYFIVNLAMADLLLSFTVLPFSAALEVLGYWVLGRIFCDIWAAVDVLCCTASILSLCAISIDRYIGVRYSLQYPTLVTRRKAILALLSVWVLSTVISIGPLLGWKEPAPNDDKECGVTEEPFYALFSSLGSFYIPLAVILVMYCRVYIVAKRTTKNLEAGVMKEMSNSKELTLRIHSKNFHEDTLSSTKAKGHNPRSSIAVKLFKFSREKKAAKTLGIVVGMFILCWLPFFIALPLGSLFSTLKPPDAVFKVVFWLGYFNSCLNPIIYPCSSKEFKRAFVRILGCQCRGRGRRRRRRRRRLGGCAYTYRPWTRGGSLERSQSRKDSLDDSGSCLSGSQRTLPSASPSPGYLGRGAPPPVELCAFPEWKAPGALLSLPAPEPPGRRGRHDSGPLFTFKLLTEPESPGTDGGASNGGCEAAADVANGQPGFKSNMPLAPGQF

α1D = target: T2, α1D (Homo sapiens, UniProt P25100)
T2 sequence (P25100 1-572): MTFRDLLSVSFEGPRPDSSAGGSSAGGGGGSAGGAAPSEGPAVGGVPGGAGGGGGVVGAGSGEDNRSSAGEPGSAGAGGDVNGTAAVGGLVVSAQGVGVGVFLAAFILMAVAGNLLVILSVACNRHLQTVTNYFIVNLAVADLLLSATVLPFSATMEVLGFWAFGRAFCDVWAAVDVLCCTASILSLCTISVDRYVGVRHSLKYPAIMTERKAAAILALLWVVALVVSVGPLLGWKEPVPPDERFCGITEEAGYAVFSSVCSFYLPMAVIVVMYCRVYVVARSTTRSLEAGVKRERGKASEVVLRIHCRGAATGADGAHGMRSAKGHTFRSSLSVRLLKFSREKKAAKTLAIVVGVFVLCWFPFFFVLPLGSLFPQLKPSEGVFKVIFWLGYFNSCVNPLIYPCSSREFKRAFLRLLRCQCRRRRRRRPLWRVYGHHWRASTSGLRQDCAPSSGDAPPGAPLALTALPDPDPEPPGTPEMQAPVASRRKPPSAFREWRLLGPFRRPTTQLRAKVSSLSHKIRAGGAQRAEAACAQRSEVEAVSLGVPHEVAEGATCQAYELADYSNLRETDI

5-HT4 = 5-HT4 (Homo sapiens, UniProt Q13639)
Sequence of 5-HT4 (Q13639 whole entry): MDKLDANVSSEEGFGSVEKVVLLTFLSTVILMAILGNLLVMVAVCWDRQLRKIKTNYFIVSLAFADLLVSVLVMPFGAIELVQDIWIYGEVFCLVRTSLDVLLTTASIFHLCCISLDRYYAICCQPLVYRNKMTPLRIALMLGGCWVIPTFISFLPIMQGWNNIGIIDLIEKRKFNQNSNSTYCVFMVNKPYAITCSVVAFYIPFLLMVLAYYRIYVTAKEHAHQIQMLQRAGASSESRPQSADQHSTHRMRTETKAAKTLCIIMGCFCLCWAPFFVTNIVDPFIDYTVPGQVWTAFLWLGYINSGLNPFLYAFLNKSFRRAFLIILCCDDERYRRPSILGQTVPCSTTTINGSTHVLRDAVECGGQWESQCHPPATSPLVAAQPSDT

σ1 = σ1 (Homo sapiens, UniProt Q99720)
Sequence of σ1 (Q99720 whole entry): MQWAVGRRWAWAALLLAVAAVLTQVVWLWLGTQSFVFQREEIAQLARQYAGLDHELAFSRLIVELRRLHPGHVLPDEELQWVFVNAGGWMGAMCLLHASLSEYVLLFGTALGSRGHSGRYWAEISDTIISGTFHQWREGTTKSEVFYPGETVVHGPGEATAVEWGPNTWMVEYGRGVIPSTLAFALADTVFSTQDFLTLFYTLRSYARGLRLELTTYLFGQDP

pKi (α1B): 7.82 | pKi (α1D): 7.57 | pKi (5-HT4): 5.00 | pKi (σ1): 5.40
SMILES: O=c1n(CCCN2CCN(c3cccc(Cl)c3)CC2)nc2ccccn12 [trazodone]
